Results taken from the SangsterLogP compilation.

Test: method code SF, from DOI: 10.1016/j.ejps.2012.10.019, PMID: 23131797
Settings: pH 2.0

logD	SMILES
3.56	COc1cccc(-n2c(SCc3cc(=O)n4ccsc4n3)nc3ccccc3c2=O)c1
3.41	Cc1cccc(C)c1NC(=O)CNC(=O)C1CCN(S(=O)(=O)c2cccc(Cl)c2Cl)CC1
3.72	O=C(/C=C/c1ccc2c(c1)OCO2)Nc1ccc2c(c1)OCO2
2.05	CCN(C(=O)C(=O)c1cn(CC(=O)N2CCOCC2)c2ccccc12)c1ccccc1
3.86	CC(=O)c1sc(SCCOc2ccccc2)nc1C

Same assay, conditions: pH 5.0

logD	SMILES
3.19	O=C(CS(=O)(=O)Cc1ccccc1)Nc1ccc2c(c1)OCCO2
3.44	COc1cc(C(=O)Nc2cccc(C#N)c2)cc(OC)c1OC
2.89	COc1nc(Cl)nc(Nc2ccccc2)n1
3.57	CC(=O)Nc1cccc(C(=O)OCC(=O)c2c(N)n(C)c(=O)n(C)c2=O)c1
4	O=C(Nc1ccccc1C(F)(F)F)NC1CCCCC1
4.68	O=C(COC(=O)c1cccc(N2C(=O)c3ccccc3C2=O)c1)c1ccc(F)cc1
4.64	COC(=O)c1ccc(OC(=O)c2cc(OC)cc(OC)c2)cc1
3.92	CCOC(=O)c1[nH]c2c(c1C)C(Cl)=C(C=O)CC2
4	COc1ccc(CCNC(=O)CSc2nc3c(c(=O)n(C)c(=O)n3C)n2Cc2ccccc2F)cc1OC
2.92	N#CCc1nc(-c2ccc3c(c2)OCCO3)cs1
4.54	Cc1ccc(NC(=O)c2ccc(S(=O)(=O)N3CCOCC3)cc2)c(C(=O)c2ccccc2)c1
4.82	Cc1cccc(C)c1NC(=O)CSc1nnnn1-c1ccc(OC(F)(F)F)cc1
4.15	COc1ccc(C(=O)CSc2nnc(-c3ccccc3)o2)cc1
4.15	COc1ccc(C)cc1-n1nnnc1SCC(=O)Nc1cc(C(N)=O)cc(C(N)=O)c1
6.28	CCCCCCSC1=C(C#N)C(c2cccs2)C(C(=O)Nc2ccccc2OC)=C(C)N1 (stereo unspecified)
4.83	Cc1ccc(-n2c(=O)c3cc4c(=O)n(-c5ccc(C)c(C)c5)c(=O)c4cc3c2=O)cc1C
2.6	COc1ccc(CNC(=O)C2CCCC2)cc1
3.69	CSc1scc(-c2cccs2)c1C#N
2.77	Cn1ncc(Cl)c1-c1nc(-c2nonc2N)no1
2.27	O=C(Cn1cc(C(F)(F)F)cc(Cl)c1=O)N1CCN(C(=O)c2ccco2)CC1

logD	SMILES
4.33	CCOc1ccc(NC(=O)CSc2nc3ccsc3c(=O)n2-c2ccccc2)cc1
4.08	COC(=O)c1cnn2c(C(F)(F)F)cc(-c3cc(OC)c(OC)c(OC)c3)nc12
4.77	COC(=O)c1ccc(-n2c(C)cc(C(=O)COc3cccc(-n4cnnn4)c3)c2C)cc1
6.85	C#Cc1cccc(NC(=O)c2cc(C(=O)Nc3cccc(C#C)c3)cc(N3C(=O)c4ccccc4C3=O)c2)c1
6.06	FC(F)(F)c1nc(-c2ccc(-c3noc(C(F)(F)F)n3)cc2)no1
4.16	COc1cccc(-c2cn3c4c(=O)n(C)c(=O)n(C)c4nc3n2-c2cccc(C)c2)c1
5.04	COc1cc2c(cc1NC(=O)COC(=O)c1cc(OC)c(OC)cc1[N+](=O)[O-])oc1ccccc12
4.62	C=CCn1c(C)c(C=C2C(=O)OC3(CCCCC3)OC2=O)c2ccccc21
5.31	NC(=O)C1CCN(C(=O)c2ccc3c(=O)n(Cc4ccco4)c(SCC(=O)c4ccccc4)nc3c2)CC1
2.56	COc1ccc(N2C(=O)Cc3ccccc3C2=O)cc1
3.87	NC(=O)c1cc(NC(=O)c2cc(C(F)(F)F)cc(C(F)(F)F)c2)cc(C(N)=O)c1
5.09	COc1cccc2c1N(C(=O)CC(C)C)C(C)(C)c1ssc(=S)c1-2
4.85	Nn1c(SCC(=O)Nc2ccccc2-c2ccccc2)nnc1-c1ccc(OC(F)F)cc1
5.09	CCOC(=O)c1ccc(NCc2c(C)[nH]c(C(=O)OCC)c2C)cc1
4.84	C=CCOC(=O)COc1ccc2c(=O)c(-c3ccc(Cl)cc3)c(C)oc2c1
3.66	COC(=O)c1ccc(Br)c(S(=O)(=O)N2CCCCC2)c1
5.38	O=C(CSCc1ccccc1)Nc1ccc(-c2ccc([N+](=O)[O-])cc2)cc1
5.27	COc1ccccc1Nc1nc(OCC(F)(F)F)nc(OCC(F)(F)F)n1
3.19	O=C1c2ccc(-c3ccc4c(c3)C(=O)N(CCO)C4=O)cc2C(=O)N1CCO
3.3	Cc1ccccc1-c1noc(CCl)n1

logD	SMILES
2.64	Cc1cc2nsnc2c([N+](=O)[O-])c1C
4.57	CC(C)OCCCNC(=O)C(=O)NCc1ccc(C(C)C)cc1
2.93	CC1=CC(C)C(CO)(CO)C(C)C1 (stereo unspecified)
5.87	Cc1ccc(C)c(S(=O)(=O)N(C)c2ccc(OC(=O)c3ccc4c(c3)OCO4)cc2)c1
3.77	CCn1cc(-c2nc3c4c(C)c(C)sc4ncn3n2)cn1
3.61	COc1cc(C(=O)Nc2ccccc2C(C)(C)C)cc(OC)c1OC
3.9	CC(C)NC(=S)N1CCN(S(=O)(=O)c2cccc(C(F)(F)F)c2)CC1
2.76	COc1ccc(OCC(=O)N2CCN(C(=O)c3ccco3)CC2)cc1
4.09	O=C(OCC(=O)N1CCCC1)c1c2ccccc2cc2ccccc12
2.78	O=C(Cn1c(=O)n(-c2ccccc2)c(=O)n1CC(=O)N1CCCCC1)N1CCCCC1
3.95	O=C(NC1CCCC1)C1c2ccccc2Oc2ccccc21
3.04	CCCCC(=O)Nc1ccc(F)c([N+](=O)[O-])c1
6.72	CCOC(=O)C1=C(Nc2ccc(OC(=O)Nc3ccc(OC(F)(F)F)cc3)cc2)C(=O)N(C(C)(C)C)C1
5.99	O=C(Nc1ccc(OC(F)F)cc1)c1ccc(COc2ccc(I)cc2)o1
5.89	CCCc1ccc(OCc2ccc(C(=O)Nc3ccccc3C(=O)OC)o2)c(OC)c1
4.62	O=C(Cn1cc(C(=O)C(F)(F)F)c2cc(Br)ccc21)N1CCCCCC1
5.51	CSc1nc2c(C#N)c(SC)nn2c(-c2ccc(Cl)cc2)c1C#N
4.73	CCOc1ccccc1OCC(=O)Nc1ccc2ccccc2c1
3.54	O=C(NC1CC1)c1ccc(COc2c(F)c(F)cc(F)c2F)o1
2.31	O=C(CSc1nnc(-c2cccs2)o1)NCCN1C(=O)CSC1=O

Same assay, conditions: pH 6.5

logD	SMILES
5.47	CCN(CC)C(=O)c1sc(NC(=O)c2cc(OC)cc(OC)c2)c(C(=O)OC)c1C
4.14	Cc1c(C)c(C)c(CSc2nnc(CC#N)n2C)c(C)c1C
3.68	COc1cc(C=O)ccc1OS(=O)(=O)c1ccc(F)c(F)c1
4.51	O=C(CSc1nnc2c3ccccc3n(Cc3ccccc3)c2n1)OCN1C(=O)c2ccccc2C1=O
2.57	N#CCOC(=O)c1ccccc1SCC(=O)N1CCCC1
5.47	O=C(COc1nnc(SCC(=O)c2ccc3c(c2)OCCO3)n1C1Cc2ccccc2C1)c1ccc(F)cc1
3.42	O=C(CC1Nc2ccccc2NC1=O)Nc1ccccc1NC(=O)CC1Nc2ccccc2NC1=O (stereo unspecified)
4.59	COCCn1c(C)cc(C(=O)CSc2ncnc3sc(C)c(C)c23)c1C
6.17	COc1ccccc1N1C(=O)c2ccc(C(=O)Nc3ccc(-c4nnc(-c5ccccc5)o4)cc3)cc2C1=O
5.59	COc1cc(C(=O)COC(=O)CCCOc2ccc(Cl)cc2Cl)cc(OC)c1OC
3.3	CCOc1ccc(CC(=O)C2=C(N3CCCC3)CCCC2=O)cc1OCC

Same assay, conditions: pH 7.0

logD	SMILES
3.55	Cc1ccc(C(=O)N2C(=O)c3cccc(N)c3C2=O)cc1NC(=O)c1ccco1

Same assay, conditions: pH 7.3

logD	SMILES
3.38	CC(Sc1nnc(-c2ccc(F)cc2)n1-c1ccccc1)C(N)=O (stereo unspecified)
4.87	COc1ccc(C2CC(=O)C3=C(C2)Nc2ccccc2N(C(=O)C(F)(F)F)C3c2cc(OC)c(OC)c(OC)c2)cc1 (stereo unspecified)
1.48	COC(=O)c1sc(N)nc1C
4.48	C=CCn1c(SCC(=O)Nc2ccc(C)c(F)c2)nnc1-c1cccs1
2.45	COc1cccc(NC(=O)CSc2nnc3ccccn23)c1
3.19	Cc1cccc(NC(=O)CSc2ccccn2)c1C
4.34	O=C(Nc1cccc(-c2cnc3ccccc3n2)c1)c1cccs1
3.85	CCn1c(SCc2nc3c4cnn(C)c4ncn3n2)nnc1-c1cc(C(F)(F)F)n(C)n1
3.65	Cc1nc(-c2ccc(Cl)cc2)cs1
1.85	Nn1c(COc2ccccc2)nnc1SC(F)F
4.24	CCn1c(SCC(=O)Nc2ccc(C(=O)OC)cc2)nnc1-c1ccccc1
2.71	CCOC(=O)C1CCN(S(=O)(=O)c2nc3nc(C)cc(C)n3n2)CC1
5.11	C=CCn1c(SCc2ccccc2)nc2ccccc2c1=O
3.68	Cn1c(SCc2cc(F)cc(F)c2)nnc1-c1ccc2nonc2c1

SMILES	logD
n1onc2c1NC1Nc3nonc3NC1N2 (stereo unspecified)	0.3

Same assay, conditions: pH 8.0

logD	SMILES
3.63	CSc1ncccc1C(=O)OCC(=O)Nc1c(C)n(C)n(-c2ccccc2)c1=O
1.74	CCOC(=O)c1nc(N)sc1C

Same assay, conditions: pH 10.0

logD	SMILES
4.61	CCCSc1nc2c(c(=O)n1-c1ccc(Br)cc1)SCC2
3.5	Cc1ccc(C)n1-c1ccc(-c2ccnc3ncnn23)cc1
4.92	Cc1cc(C(F)(F)F)n2nc(-c3nnc(-c4cccc(C(F)(F)F)c4)o3)cc2n1
1.56	Nc1nc2nc3nc(N)sc3cc2s1

Same assay, conditions: pH 10.5

logD	SMILES
5.35	CCn1cc(C2C3=C(CC(C)(C)CC3=O)N(c3ccc(C)cc3)C3=C2C(=O)CC(C)(C)C3)c(C)n1
4.7	Cc1cc(C)n(C2=NCCN2S(=O)(=O)c2cc(C(F)(F)F)cc(C(F)(F)F)c2)n1
4.66	CCOC(=O)c1sc(NCCNc2nc(C)c(C(=O)OCC)s2)nc1C
1.14	Cc1nc2c(N)nnc(N)c2nc1C
2.95	Cc1ccc(-n2c(C)cc(=O)cc2C)cc1C
3.9	COC(=O)COc1cc2occ(-c3csc(C)n3)c(=O)c2cc1C
4.13	Cc1c(C(=O)N2CCN(S(=O)(=O)c3ccccc3)CC2)sc2nc3n(c(=O)c12)CCCCC3
2.55	COc1cc(C2C(C#N)=C(N)Oc3cc(C)[nH]c(=O)c32)cc(OC)c1OC (stereo unspecified)
4.71	Cn1c(=O)c(C(=O)CN2CCSc3ccccc32)c(N)n(Cc2ccccc2)c1=O
4.89	COc1ccc(-c2nnc(SCC(=O)c3c(N)n(C)c(=O)n(C)c3=O)n2-c2cccc(C(F)(F)F)c2)cc1
3.53	C=CCNC(=O)CSc1nnc(CCn2nc(C)c(Br)c2C)n1CC
4.46	Cc1ccc(S(=O)(=O)N(C)c2ccc(OCC(=O)N3CCN(c4ncccn4)CC3)cc2)cc1
5.92	CCOC(=O)N1CCN(c2nc(C(F)(F)F)nc3c(C)cc(C)cc23)CC1
